Data: ChEMBL document CHEMBL4304811, “Development of a Water-Soluble Indolylmaleimide Derivative IM-93 Showing Dual Inhibition of Ferroptosis and NETosis” (ACS Med Chem Lett, 2019)

Experiments:
[1] = target: Cyclin-dependent kinase 17 (Homo sapiens) (UniProt Q00537); assay: Binding affinity to wild-type human full length PCTK2 (M1 to F523 residues) expressed in bacterial expression system assessed as residual binding level at 10 uM by Kinomescan method relative to control
[2] = system: Phosphatidylinositol 4,5-bisphosphate 3-kinase catalytic subunit alpha isoform (Homo sapiens), P42336 [M1043I]; assay: Binding affinity to human partial length PIK3CA M1043I mutant (R108 to N1068 residues) expressed in mammalian expression system assessed as residual binding level at 10 uM by Kinomescan method relative to control
[3] = target: Fibroblast growth factor receptor 1 (Homo sapiens) (UniProt P11362); assay: Binding affinity to wild-type human partial length FGFR1 (P357 to V669 residues) expressed in bacterial expression system assessed as residual binding level at 10 uM by Kinomescan method relative to control
[4] = target: Serine/threonine-protein kinase 10 (Homo sapiens) (UniProt O94804); assay: Binding affinity to wild-type human partial length LOK (E16 to V314 residues) expressed in bacterial expression system assessed as residual binding level at 10 uM by Kinomescan method relative to control
[5] = target: Cyclin-dependent kinase 13 (Homo sapiens) (UniProt Q14004); assay: Binding affinity to wild-type human partial length CDC2L5 (H675 to S1054 residues) expressed in mammalian expression system assessed as residual binding level at 10 uM by Kinomescan method relative to control
[6] = target: Tyrosine-protein kinase ABL1 (Homo sapiens) (UniProt P00519); assay: Binding affinity to wild-type human non-phosphorylated ABL1 (S229 to K512 residues) expressed in mammalian expression system assessed as residual binding level at 10 uM by Kinomescan method relative to control
[7] = target: Serine/threonine-protein kinase D3 (Homo sapiens) (UniProt O94806); assay: Binding affinity to wild-type human partial length PRKD3 (S543 to E863 residues) expressed in bacterial expression system assessed as residual binding level at 10 uM by Kinomescan method relative to control
[8] = target: Homeodomain-interacting protein kinase 4 (Homo sapiens) (UniProt Q8NE63); assay: Binding affinity to wild-type human partial length HIPK4 (M1 to V384 residues) expressed in bacterial expression system assessed as residual binding level at 10 uM by Kinomescan method relative to control
[9] = target: Serine/threonine-protein kinase LATS2 (Homo sapiens) (UniProt Q9NRM7); assay: Binding affinity to wild-type human partial length LATS2 (Q641 to V1088 residues) expressed in mammalian expression system assessed as residual binding level at 10 uM by Kinomescan method relative to control
[10] = target: Casein kinase I isoform epsilon (Homo sapiens) (UniProt P49674); assay: Binding affinity to wild-type human full length CSNK1E (M1 to K416 residues) expressed in bacterial expression system assessed as residual binding level at 10 uM by Kinomescan method relative to control
[11] = target: TRAF2 and NCK-interacting protein kinase (Homo sapiens) (UniProt Q9UKE5); assay: Binding affinity to wild-type human partial length TNIK (D4 to K311 residues) expressed in bacterial expression system assessed as residual binding level at 10 uM by Kinomescan method relative to control
[12] = target: Dual specificity mitogen-activated protein kinase kinase 1 (Homo sapiens) (UniProt Q02750); assay: Binding affinity to wild-type human full length MEK1 (M1 to V393 residues) expressed in mammalian expression system assessed as residual binding level at 10 uM by Kinomescan method relative to control
[13] = target: Maternal embryonic leucine zipper kinase (Homo sapiens) (UniProt Q14680); assay: Binding affinity to wild-type human full length MELK (M1 to V651 residues) expressed in bacterial expression system assessed as residual binding level at 10 uM by Kinomescan method relative to control
[14] = system: Hepatocyte growth factor receptor (Homo sapiens), P08581 [M1250T]; assay: Binding affinity to human partial length MET M1250T mutant (D1010 to S1367 residues) expressed in bacterial expression system assessed as residual binding level at 10 uM by Kinomescan method relative to control
[15] = target: Calcium/calmodulin-dependent protein kinase type II subunit gamma (Homo sapiens) (UniProt Q13555); assay: Binding affinity to wild-type human partial length CAMK2G (R9 to A303 residues) expressed in bacterial expression system assessed as residual binding level at 10 uM by Kinomescan method relative to control
[16] = system: Mast/stem cell growth factor receptor Kit (Homo sapiens), P10721 [D816H]; assay: Binding affinity to human partial length KIT D816H mutant (I571 to D952 residues) expressed in mammalian expression system assessed as residual binding level at 10 uM by Kinomescan method relative to control
[17] = target: Receptor-interacting serine/threonine-protein kinase 1 (Homo sapiens) (UniProt Q13546); assay: Binding affinity to wild-type human partial length RIPK1 (M1 to K305 residues) expressed in bacterial expression system assessed as residual binding level at 10 uM by Kinomescan method relative to control
[18] = target: Cyclin-dependent kinase 19 (Homo sapiens) (UniProt Q9BWU1); assay: Binding affinity to wild-type human partial length CDK11 (M1 to N360 residues) expressed in bacterial expression system assessed as residual binding level at 10 uM by Kinomescan method relative to control
[19] = target: Serine/threonine-protein kinase TBK1 (Homo sapiens) (UniProt Q9UHD2); assay: Binding affinity to wild-type human full length TBK1 (M1 to L729 residues) expressed in mammalian expression system assessed as residual binding level at 10 uM by Kinomescan method relative to control
[20] = target: STE20/SPS1-related proline-alanine-rich protein kinase (Homo sapiens) (UniProt Q9UEW8); assay: Binding affinity to wild-type human partial length STK39 (P43 to I357 residues) expressed in mammalian expression system assessed as residual binding level at 10 uM by Kinomescan method relative to control
[21] = system: Proto-oncogene tyrosine-protein kinase receptor Ret (Homo sapiens), P07949 [M918T]; assay: Binding affinity to human partial length RET M918T mutant (E713 to D1014 residues) expressed in bacterial expression system assessed as residual binding level at 10 uM by Kinomescan method relative to control
[22] = target: 3-phosphoinositide-dependent protein kinase 1 (Homo sapiens) (UniProt O15530); assay: Binding affinity to wild-type human full length PDPK1 (M1 to Q556 residues) expressed in bacterial expression system assessed as residual binding level at 10 uM by Kinomescan method relative to control
[23] = target: Non-receptor tyrosine-protein kinase TNK1 (Homo sapiens) (UniProt Q13470); assay: Binding affinity to wild-type human full length TNK1 (M1 to P661 residues) expressed in bacterial expression system assessed as residual binding level at 10 uM by Kinomescan method relative to control
[24] = target: Serine/threonine-protein kinase MAK (Homo sapiens) (UniProt P20794); assay: Binding affinity to wild-type human partial length MAK (M1 to P314 residues) expressed in bacterial expression system assessed as residual binding level at 10 uM by Kinomescan method relative to control
Sequence of Serine/threonine-protein kinase MAK (Homo sapiens) (P20794 whole entry, the tested form may be a part): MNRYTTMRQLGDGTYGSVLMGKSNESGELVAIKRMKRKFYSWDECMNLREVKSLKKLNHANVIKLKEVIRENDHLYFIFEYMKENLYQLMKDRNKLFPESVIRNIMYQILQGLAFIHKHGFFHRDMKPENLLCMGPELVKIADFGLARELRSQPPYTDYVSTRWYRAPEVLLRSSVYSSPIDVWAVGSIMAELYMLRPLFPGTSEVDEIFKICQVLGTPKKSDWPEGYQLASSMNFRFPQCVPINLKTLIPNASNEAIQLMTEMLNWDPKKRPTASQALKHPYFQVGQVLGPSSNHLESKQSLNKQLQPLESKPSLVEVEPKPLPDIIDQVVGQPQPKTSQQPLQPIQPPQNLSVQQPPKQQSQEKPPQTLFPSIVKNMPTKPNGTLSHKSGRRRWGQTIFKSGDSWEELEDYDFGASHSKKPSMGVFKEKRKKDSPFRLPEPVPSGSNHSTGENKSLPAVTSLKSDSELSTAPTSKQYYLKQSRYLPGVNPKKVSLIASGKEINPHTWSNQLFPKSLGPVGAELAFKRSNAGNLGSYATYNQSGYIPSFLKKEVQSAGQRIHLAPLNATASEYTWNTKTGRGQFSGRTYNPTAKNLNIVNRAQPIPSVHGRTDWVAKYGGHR

Sequence of Calcium/calmodulin-dependent protein kinase type II subunit gamma (Homo sapiens) (Q13555 whole entry, the tested form may be a part): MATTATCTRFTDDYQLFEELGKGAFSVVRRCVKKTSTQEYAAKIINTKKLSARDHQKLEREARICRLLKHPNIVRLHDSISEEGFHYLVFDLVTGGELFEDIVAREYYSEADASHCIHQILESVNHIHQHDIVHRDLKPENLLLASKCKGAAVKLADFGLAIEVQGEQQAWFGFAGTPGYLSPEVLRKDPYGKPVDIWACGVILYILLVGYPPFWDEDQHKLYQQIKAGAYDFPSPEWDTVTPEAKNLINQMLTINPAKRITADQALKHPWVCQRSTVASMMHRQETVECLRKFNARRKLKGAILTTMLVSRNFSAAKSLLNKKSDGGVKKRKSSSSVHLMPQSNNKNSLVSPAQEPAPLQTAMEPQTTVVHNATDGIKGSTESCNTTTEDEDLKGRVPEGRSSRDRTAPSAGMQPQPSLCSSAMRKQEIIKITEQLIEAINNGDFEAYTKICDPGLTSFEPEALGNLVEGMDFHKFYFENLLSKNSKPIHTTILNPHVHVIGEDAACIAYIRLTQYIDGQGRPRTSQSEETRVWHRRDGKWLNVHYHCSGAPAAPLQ
Sequence of Homeodomain-interacting protein kinase 4 (Homo sapiens) (Q8NE63 whole entry, the tested form may be a part): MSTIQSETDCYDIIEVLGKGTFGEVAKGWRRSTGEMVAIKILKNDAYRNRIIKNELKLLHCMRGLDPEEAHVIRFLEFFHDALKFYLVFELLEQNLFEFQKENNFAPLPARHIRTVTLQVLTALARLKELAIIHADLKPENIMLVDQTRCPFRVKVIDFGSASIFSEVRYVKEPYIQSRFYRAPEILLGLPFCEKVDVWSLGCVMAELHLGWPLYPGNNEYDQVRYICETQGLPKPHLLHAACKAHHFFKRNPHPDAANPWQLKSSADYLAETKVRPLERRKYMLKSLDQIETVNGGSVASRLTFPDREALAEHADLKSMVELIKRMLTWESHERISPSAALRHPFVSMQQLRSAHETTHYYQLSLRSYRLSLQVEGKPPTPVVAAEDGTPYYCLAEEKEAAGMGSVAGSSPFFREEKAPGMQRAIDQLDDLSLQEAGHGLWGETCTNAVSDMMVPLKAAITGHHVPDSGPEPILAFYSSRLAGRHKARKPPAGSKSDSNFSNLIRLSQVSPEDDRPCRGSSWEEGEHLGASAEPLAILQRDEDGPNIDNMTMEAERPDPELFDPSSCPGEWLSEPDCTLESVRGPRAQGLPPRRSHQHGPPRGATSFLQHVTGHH
Sequence of Cyclin-dependent kinase 13 (Homo sapiens) (Q14004 whole entry, looked up, the tested form may be a part): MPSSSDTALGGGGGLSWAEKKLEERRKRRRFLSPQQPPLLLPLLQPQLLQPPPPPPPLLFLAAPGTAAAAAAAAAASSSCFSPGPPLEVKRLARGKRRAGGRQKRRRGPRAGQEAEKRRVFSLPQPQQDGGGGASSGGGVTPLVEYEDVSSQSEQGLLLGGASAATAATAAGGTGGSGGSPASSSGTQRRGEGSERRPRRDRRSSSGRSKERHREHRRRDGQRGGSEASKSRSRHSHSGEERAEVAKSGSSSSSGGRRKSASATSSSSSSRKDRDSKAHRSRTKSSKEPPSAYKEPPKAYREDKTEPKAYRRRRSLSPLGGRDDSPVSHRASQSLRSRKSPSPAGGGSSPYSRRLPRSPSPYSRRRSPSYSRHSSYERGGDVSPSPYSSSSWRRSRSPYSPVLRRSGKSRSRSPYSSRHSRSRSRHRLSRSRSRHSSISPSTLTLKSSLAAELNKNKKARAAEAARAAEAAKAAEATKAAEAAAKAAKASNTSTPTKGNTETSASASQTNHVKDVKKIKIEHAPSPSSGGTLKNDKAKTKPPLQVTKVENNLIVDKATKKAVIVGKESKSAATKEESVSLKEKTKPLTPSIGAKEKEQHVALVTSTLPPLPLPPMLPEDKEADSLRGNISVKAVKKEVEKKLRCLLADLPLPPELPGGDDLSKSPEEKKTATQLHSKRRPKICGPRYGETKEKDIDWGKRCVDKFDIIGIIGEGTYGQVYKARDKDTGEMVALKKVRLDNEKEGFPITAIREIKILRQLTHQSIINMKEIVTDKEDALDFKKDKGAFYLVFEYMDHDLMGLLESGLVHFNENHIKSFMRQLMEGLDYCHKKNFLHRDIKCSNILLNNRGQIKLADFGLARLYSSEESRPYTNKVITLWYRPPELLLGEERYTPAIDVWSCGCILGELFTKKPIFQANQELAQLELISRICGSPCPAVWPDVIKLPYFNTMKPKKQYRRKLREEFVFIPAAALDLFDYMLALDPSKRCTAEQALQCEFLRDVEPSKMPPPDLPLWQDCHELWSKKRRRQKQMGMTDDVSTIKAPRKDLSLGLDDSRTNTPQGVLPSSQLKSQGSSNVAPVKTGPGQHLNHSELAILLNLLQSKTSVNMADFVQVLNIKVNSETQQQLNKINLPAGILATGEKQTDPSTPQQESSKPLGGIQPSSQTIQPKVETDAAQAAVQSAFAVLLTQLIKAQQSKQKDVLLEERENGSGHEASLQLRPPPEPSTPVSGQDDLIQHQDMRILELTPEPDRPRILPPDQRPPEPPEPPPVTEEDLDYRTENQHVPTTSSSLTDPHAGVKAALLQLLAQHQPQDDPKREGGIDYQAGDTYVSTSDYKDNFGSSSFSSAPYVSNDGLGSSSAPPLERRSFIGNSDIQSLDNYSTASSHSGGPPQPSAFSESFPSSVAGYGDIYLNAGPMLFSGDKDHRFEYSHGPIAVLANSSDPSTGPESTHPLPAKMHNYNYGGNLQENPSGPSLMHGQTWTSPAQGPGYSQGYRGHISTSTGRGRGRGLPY
Sequence of Serine/threonine-protein kinase LATS2 (Homo sapiens) (Q9NRM7 whole entry, the tested form may be a part, canonical isoform): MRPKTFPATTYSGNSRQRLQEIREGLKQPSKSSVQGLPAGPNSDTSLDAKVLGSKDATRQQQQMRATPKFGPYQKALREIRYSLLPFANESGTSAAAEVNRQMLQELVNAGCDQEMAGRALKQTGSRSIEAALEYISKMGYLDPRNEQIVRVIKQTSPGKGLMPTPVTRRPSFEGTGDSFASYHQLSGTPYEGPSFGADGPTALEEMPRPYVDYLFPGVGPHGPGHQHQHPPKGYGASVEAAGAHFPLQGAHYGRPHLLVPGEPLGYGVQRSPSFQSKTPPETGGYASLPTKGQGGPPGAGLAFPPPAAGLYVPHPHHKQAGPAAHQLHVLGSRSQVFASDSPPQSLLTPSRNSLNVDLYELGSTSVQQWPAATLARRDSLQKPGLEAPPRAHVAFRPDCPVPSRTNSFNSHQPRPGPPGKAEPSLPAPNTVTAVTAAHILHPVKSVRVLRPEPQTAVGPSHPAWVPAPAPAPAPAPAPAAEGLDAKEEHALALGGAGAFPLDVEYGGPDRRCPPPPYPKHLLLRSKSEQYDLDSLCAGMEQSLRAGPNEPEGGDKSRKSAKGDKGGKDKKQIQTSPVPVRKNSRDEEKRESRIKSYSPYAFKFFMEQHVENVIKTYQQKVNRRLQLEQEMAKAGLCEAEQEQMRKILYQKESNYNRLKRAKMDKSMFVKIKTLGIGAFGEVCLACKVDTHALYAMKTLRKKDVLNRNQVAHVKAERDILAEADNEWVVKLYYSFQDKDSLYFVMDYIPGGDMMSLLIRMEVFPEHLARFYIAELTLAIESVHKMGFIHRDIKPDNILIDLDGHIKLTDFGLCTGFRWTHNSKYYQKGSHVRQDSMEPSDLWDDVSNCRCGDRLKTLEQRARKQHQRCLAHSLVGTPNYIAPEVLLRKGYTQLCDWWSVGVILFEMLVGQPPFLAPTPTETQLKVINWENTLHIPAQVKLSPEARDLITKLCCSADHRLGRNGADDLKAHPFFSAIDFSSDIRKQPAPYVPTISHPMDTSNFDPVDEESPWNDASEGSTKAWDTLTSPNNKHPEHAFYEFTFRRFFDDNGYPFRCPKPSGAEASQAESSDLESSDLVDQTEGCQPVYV
Sequence of Dual specificity mitogen-activated protein kinase kinase 1 (Homo sapiens) (Q02750 whole entry, the tested form may be a part): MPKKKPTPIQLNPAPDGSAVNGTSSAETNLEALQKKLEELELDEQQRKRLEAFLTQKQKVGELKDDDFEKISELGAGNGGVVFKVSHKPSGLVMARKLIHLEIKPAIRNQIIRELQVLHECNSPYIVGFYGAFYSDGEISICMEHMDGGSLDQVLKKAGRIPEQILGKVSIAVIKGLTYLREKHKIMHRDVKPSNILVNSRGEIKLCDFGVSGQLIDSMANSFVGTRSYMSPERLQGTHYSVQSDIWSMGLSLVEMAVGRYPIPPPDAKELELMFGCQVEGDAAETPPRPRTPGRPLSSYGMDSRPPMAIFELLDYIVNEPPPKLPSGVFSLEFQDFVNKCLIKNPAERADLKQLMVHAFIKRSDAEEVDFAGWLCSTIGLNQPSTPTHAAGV

`CC(C)N1C(=O)C(NCCCN(C)C)=C(c2cn(C)c3ccccc23)C1=O.Cl` showed an Activity [1] of 99%, an Activity [2] of 67% and an Activity [3] of 84%. It also gave an Activity [4] of 88%, an Activity [5] of 99% and an Activity [6] of 84%. The Activity [7] was 91%, the Activity [8] was 84% and the Activity [9] was 88%. For the same compound, the Activity [10] was 89%, the Activity [11] was 100% and the Activity [12] was 84%. The Activity [13] was 100%, the Activity [14] was 100% and the Activity [15] was 83%. It also gave an Activity [16] of 96%, an Activity [17] of 96% and an Activity [18] of 94%. For the same compound, the Activity [19] was 73%, the Activity [20] was 98% and the Activity [21] was 86%. For the same compound, the Activity [22] was 89%, the Activity [23] was 95% and the Activity [24] was 100%.
